What was measured:
[1] = target: T1, Adrenergic receptor alpha-1 (Homo sapiens, UniProt P35348+P25100+P35368)
T1 sequence (P35348 whole entry): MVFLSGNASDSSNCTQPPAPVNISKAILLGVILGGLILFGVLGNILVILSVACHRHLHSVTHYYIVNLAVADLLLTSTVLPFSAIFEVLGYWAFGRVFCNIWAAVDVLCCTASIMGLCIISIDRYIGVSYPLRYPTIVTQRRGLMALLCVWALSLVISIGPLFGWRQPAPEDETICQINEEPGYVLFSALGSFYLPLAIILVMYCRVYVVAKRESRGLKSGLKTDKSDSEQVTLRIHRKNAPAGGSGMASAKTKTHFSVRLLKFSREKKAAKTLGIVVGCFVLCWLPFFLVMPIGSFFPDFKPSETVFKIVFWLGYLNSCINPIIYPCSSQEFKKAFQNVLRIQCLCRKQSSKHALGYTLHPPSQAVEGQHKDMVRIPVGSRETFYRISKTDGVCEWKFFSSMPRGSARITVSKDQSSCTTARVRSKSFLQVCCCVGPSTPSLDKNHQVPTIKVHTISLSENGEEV
T1 sequence (P25100 whole entry): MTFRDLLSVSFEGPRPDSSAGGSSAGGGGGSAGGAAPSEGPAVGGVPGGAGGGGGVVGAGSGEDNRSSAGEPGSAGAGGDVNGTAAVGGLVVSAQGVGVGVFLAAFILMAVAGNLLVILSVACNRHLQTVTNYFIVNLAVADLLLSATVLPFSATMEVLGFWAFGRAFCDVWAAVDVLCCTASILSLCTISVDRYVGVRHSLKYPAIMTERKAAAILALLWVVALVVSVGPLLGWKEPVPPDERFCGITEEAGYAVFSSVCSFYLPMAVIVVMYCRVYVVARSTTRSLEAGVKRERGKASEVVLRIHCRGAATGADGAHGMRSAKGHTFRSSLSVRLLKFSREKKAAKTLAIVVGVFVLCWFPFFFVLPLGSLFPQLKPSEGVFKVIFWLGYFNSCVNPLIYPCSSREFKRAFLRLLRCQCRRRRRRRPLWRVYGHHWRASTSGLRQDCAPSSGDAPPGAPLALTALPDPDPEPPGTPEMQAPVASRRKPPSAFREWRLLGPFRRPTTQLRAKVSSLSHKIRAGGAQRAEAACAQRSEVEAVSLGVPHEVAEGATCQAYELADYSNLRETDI
T1 sequence (P35368 whole entry): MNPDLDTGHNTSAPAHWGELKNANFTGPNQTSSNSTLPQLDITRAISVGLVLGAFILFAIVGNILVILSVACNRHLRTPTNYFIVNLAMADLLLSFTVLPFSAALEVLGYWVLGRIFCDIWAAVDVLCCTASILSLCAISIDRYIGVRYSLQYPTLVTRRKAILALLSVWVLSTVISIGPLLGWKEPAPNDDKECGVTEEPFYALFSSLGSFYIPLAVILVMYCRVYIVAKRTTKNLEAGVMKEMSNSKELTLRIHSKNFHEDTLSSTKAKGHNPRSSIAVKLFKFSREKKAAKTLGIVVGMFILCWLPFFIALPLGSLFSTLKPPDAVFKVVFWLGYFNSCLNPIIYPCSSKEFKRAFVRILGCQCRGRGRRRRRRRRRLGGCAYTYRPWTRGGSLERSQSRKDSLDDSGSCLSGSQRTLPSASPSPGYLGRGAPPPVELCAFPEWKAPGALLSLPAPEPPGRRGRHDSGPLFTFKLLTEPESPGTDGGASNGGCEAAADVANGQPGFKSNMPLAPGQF
Description: Inhibitory concentration against alpha adrenergic receptor

[2] = target: T2, Sodium-dependent serotonin transporter (Homo sapiens, UniProt P31645)
Description: Inhibitory concentration against serotonin transporter

[3] = target: T3, 5-hydroxytryptamine receptor 1A (Homo sapiens, UniProt P08908)
T3 sequence (P08908 whole entry): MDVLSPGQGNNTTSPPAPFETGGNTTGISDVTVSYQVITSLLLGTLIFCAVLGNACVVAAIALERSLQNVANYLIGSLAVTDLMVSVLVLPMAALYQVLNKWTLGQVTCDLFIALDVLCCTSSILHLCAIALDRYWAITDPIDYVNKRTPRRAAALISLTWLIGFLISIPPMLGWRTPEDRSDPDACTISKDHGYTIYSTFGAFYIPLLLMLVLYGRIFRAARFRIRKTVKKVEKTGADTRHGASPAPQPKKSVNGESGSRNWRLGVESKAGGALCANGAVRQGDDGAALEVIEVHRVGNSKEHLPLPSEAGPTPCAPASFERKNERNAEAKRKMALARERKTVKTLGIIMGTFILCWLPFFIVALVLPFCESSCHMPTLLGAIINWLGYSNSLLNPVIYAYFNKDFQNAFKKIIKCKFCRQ
Description: Inhibition constant against 5-hydroxytryptamine 1A receptor

[4] = target: T4, Polyunsaturated fatty acid 5-lipoxygenase (Homo sapiens, UniProt P09917)
T4 sequence (P09917 whole entry): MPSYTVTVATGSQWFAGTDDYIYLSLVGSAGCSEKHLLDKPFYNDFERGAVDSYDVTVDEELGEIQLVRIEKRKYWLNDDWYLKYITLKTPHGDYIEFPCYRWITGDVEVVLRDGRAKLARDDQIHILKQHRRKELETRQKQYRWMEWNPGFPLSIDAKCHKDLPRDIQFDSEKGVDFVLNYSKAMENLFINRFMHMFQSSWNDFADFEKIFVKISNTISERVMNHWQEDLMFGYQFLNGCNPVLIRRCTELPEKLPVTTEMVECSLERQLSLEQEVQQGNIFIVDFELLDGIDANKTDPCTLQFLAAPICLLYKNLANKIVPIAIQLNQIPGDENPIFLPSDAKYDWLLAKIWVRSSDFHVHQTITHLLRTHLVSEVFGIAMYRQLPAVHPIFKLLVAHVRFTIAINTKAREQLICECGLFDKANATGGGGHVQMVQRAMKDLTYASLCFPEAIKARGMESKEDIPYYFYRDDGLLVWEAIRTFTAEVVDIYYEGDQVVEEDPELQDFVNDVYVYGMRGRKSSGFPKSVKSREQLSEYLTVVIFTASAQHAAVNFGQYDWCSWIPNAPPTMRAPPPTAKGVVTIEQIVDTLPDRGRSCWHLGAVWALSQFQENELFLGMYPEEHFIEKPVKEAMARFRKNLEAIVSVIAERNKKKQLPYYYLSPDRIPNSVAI

[5] = target: T4, Polyunsaturated fatty acid 5-lipoxygenase; assay: Inhibitory concentration against arachidonate 5-lipoxygenase
Cyclooxygenase = Cyclooxygenase (Homo sapiens, UniProt P35354+P23219)
Description: Inhibitory concentration against prostaglandin G/H synthase

[6] = target: T5, Peroxisome proliferator-activated receptor alpha (Homo sapiens, UniProt Q07869)
T5 sequence (Q07869 whole entry): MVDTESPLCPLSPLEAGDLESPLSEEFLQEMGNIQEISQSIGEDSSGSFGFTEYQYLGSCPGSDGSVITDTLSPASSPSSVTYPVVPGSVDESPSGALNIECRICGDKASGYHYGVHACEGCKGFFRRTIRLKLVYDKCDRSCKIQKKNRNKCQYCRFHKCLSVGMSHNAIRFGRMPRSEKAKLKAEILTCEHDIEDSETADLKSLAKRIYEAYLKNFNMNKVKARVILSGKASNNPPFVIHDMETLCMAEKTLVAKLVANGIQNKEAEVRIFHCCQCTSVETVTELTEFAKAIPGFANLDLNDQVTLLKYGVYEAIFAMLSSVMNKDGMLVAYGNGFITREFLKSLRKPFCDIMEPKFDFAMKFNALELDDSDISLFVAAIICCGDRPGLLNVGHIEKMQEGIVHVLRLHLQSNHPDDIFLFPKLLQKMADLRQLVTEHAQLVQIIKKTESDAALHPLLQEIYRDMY
Description: Binding affinity towards peroxisome proliferator activated receptor alpha

[7] = target: T6, Peroxisome proliferator-activated receptor delta (Homo sapiens, UniProt Q03181)
T6 sequence (Q03181 whole entry): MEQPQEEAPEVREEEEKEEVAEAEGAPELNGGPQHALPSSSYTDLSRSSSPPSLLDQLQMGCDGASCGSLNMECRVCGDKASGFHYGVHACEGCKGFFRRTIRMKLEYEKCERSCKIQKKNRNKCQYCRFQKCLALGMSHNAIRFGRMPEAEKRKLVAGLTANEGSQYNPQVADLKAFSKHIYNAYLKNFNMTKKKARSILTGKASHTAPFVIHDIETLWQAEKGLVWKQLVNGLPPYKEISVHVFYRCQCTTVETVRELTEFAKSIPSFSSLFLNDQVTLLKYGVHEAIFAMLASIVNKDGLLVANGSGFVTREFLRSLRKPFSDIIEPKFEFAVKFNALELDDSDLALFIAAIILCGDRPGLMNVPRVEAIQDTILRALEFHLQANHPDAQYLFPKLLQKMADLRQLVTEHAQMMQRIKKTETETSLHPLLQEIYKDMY
Description: Binding affinity towards peroxisome proliferator activated receptor delta

[8] = target: T7, Peroxisome proliferator-activated receptor gamma (Homo sapiens, UniProt P37231)
T7 sequence (P37231 whole entry): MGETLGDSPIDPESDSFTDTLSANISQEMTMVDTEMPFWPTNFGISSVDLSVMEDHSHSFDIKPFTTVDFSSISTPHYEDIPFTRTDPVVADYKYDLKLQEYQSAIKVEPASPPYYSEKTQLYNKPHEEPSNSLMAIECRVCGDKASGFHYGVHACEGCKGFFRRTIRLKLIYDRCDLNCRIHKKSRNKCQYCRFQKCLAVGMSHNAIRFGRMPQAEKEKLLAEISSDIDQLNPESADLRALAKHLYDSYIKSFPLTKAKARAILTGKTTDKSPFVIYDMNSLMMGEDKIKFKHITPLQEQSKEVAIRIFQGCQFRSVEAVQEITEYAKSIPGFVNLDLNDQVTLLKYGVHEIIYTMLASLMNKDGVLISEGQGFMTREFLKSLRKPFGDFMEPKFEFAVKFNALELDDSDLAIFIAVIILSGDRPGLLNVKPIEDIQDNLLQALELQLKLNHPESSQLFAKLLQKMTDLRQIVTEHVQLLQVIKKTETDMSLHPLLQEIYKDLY
Description: Binding affinity towards peroxisome proliferator activated receptor gamma

[9] = target: T2, Sodium-dependent serotonin transporter; remark: listed apart in the source
Description: Inhibition constant against serotonin transporter

Substance-K receptor = target: T8, Substance-K receptor (Homo sapiens, UniProt P21452)
T8 sequence (P21452 whole entry): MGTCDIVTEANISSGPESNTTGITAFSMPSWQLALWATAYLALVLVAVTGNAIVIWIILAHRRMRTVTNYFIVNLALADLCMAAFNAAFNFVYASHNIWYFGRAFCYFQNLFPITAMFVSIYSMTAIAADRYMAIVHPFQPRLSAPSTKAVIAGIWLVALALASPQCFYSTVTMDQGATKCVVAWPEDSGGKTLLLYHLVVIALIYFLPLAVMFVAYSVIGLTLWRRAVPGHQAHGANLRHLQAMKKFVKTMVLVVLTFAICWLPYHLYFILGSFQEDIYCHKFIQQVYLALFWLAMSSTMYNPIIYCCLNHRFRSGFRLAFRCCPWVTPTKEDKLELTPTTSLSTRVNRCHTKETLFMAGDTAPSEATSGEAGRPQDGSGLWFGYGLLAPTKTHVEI
Description: Inhibitory concentration against tachykinin receptor 2

[10] = target: T2, Sodium-dependent serotonin transporter; assay: Negative logarithm causing 50% receptor occupancy against serotonin transporter
[11] = target: T1, Adrenergic receptor alpha-1; assay: Inhibition constant against alpha adrenergic receptor; type: protein assay

T2 sequence (P31645 whole entry): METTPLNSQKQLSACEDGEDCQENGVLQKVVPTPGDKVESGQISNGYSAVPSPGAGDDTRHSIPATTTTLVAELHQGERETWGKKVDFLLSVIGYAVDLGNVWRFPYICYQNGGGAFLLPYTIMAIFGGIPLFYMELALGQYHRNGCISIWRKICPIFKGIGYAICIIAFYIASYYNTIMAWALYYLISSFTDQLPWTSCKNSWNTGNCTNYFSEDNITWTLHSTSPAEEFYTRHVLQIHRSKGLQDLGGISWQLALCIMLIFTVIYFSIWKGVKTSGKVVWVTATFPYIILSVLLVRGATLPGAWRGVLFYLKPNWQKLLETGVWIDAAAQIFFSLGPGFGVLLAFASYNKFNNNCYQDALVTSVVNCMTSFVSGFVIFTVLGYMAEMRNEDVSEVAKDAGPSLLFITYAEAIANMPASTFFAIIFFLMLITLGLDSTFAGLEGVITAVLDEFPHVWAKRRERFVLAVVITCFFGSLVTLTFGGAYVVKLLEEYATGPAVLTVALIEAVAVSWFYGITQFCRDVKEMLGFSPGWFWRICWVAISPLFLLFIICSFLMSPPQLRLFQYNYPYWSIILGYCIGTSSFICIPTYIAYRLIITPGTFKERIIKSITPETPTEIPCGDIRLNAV

O=C1Cc2cc(CCN3CCN(c4nsc5ccccc45)CC3)c(Cl)cc2N1 [ZIPRASIDONE] was tested, and the IC50 [1] was 11 nM.

In the case of CCN(CC)C(=O)[C@@]1(c2ccccc2)CC1CNCC(O)COc1cccc2[nH]ccc12 (stereo not given in full), the IC50 [2] is reported as 120 nM and the Ki [3] is reported as 45 nM.

CN1[C@@H]2CC[C@H]1C[C@@H](OC(=O)c1c[nH]c3ccccc13)C2 [TROPISETRON] gave a Ki [3] of 5.3 nM.

Cc1c(O)c(C)c2sc(NCc3ccc(S(N)(=O)=O)cc3)nc2c1C showed an IC50 [4] of 230 nM.

COc1cccc2c1CCCC2CN(C)CCc1cccc(F)c1 (stereo not given) was tested, and the IC50 [2] was 160 nM and the Ki [3] was 3.2 nM.

Molecule CC(C)(C)c1cc(C=C2SC(N)=NC2=O)cc(C(C)(C)C)c1O has an IC50 [5] of 770 nM and an IC50 (Cyclooxygenase) of 390 nM.

COc1ccc(-n2nc(C#CC(C)N(O)C(C)=O)cc2-c2ccc(Cl)cc2)cc1 (stereo not given) was tested, and the IC50 [5] was 110 nM and the IC50 (Cyclooxygenase) was 30 nM.

Work on CCO[C@@H](Cc1ccc(OCC=C(c2ccccc2)c2ccccc2)cc1)C(=O)O yielded a Kd [6] of 6400 nM, a Kd [7] of 5700 nM and a Kd [8] of 2700 nM.

CCO[C@@H](Cc1ccc(OCCn2c3ccccc3c3ccccc32)cc1)C(=O)O showed a Kd [6] of 360 nM, a Kd [7] of 3000 nM and a Kd [8] of 170 nM.

For O=C(CN1CCN(Cc2ccc(Cl)cc2)CC1)N1CCc2ccccc21, the IC50 [1] was 88 nM.

CN(C)CC(O)COc1cccc2[nH]ccc12 (stereo not given) gave a Ki [9] of over 7000 nM and a Ki [3] of 24 nM.

COc1ccccc1CN[C@H]1C2CCN(CC2)[C@@H]1C(c1ccccc1)c1ccccc1 showed an IC50 (Substance-K receptor) of over 10000 nM.

Molecule CCOC(Cc1ccc(OCCN(C)C2=Nc3ccccc3Sc3ccccc32)cc1)C(=O)O (stereo not given) has a Kd [6] of 7500 nM and a Kd [8] of 9800 nM.

CC(C)(C)c1cc(C(=O)c2cccs2)cc(C(C)(C)C)c1O [PRIFELONE] was tested, and the IC50 [5] was 20000 nM and the IC50 (Cyclooxygenase) was 500 nM.

CC(COc1ccc2c(c1)NC(=O)CO2)NCC(O)COc1cccc2[nH]ccc12 (stereo not given) gave a Ki [10] of 50.1 nM.

For COc1cccc2c1CCCC2CN(C)CCc1ccc2c(c1)OCO2 (stereo not given), the IC50 [2] was 21 nM and the Ki [3] was 6.7 nM.

CN(C)C(=O)Oc1ccc2c(c1)C=CCN(C)[C@@H]2CCOc1ccc([N+](=O)[O-])cc1 showed an IC50 [2] of 6 nM.

In the case of O=C1COc2ccc(OCCNCCCOc3cccc4[nH]ccc34)cc2N1, the Ki [10] is reported as 79.4 nM.

CCO[C@@H](Cc1ccc(OCC=C(c2ccc(-c3ccccc3)cc2)c2ccc(-c3ccccc3)cc2)cc1)C(=O)O showed a Kd [6] of 1100 nM, a Kd [7] of 500 nM and a Kd [8] of 300 nM.

For C1=C(c2c[nH]c3ncccc23)CCN(CCOc2cccc3[nH]ccc23)C1, the Ki [9] was 1.5 nM and the Ki [11] was 1 nM.

Reference: ChEMBL document CHEMBL1140446, “Designed multiple ligands. An emerging drug discovery paradigm” (J Med Chem, 2005)
